Molecular target: T1, USP30 (Homo sapiens, UniProt Q70CQ3)
T1 construct: We next determined cellular engagement of endogenous USP30 with IMP-2587 or IMP-2586; endogenous in cells; host or cells: HEK293T
T1 sequence (Q70CQ3 1-517): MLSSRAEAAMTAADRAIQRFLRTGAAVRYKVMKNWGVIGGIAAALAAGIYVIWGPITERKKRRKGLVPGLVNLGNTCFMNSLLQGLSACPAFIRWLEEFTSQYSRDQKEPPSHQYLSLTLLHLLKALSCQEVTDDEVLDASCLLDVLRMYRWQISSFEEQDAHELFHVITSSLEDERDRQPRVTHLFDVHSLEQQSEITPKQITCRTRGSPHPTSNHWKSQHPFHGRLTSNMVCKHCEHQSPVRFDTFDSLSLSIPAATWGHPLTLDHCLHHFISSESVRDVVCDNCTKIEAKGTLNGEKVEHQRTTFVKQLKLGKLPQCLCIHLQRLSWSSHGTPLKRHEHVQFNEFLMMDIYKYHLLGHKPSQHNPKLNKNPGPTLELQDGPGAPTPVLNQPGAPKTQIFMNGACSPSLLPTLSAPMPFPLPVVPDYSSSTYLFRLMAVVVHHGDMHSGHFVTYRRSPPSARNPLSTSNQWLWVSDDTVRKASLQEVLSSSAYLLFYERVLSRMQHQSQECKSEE
Experiment: Direct target engagement in HEK293T cells: CuAAC ligation and in-gel fluorescence
Format: cell-based
Settings: for probe concentration for detection of USP30 activity in intact cells: following 1 hour incubation
Method: We next determined cellular engagement of endogenous USP30 with IMP-2587 or IMP-2586. […] In-cell concentration-dependent competition by IMP-2587 and IMP-2586 for USP30 were confirmed below 100 nM probe (Fig. 2b and c), whilst engagement of an exemplar unrelated DUB, UCHL1, occurred only at a much higher concentration (30 000 nM). We hypothesise that incomplete modification of USP30 by HA-Ub-VME is likely due to limited retention of USP30 activity in cell lysates, which have likely had the USP30 transmembrane domain compromised, highlighting the potential utility of a small molecule USP30 ABP applicable directly in intact cells. Direct USP30 target engagement by IMP-2587 and IMP-2586 was confirmed in HEK293T cells following 1 h probe treatment followed by cell lysis and CuAAC bio-orthogonal ligation to capture reagent azido-TAMRA-biotin (AzTB) for IMP-2587 or alkyne-TAMRA-biotin for IMP-2586 (Fig. 3a).[27] […] This unspecific background labelling is presumably due to the previously reported higher off-target CuAAC reactivity of an alkyne-bearing capture reagent, applied here due to incorporation of an azide tag in IMP-2586.[28] Moreover, the labelling of USP30 was further confirmed by biotin pulldown and immunoblotting. […]
d) Live cell probe incubation, lysate click chemistry and precipitation 6-well HEK293T cells were incubated with media containing compounds ABP 2 and ABP 4 at indicated concentrations for 1 h at 37 °C. The cells were washed with PBS and lysed with lysis buffer (50 μL (1% (v/v) Triton X-100, 0.1% (w/v) sodium dodecyl sulfate (SDS), EDTA-free complete protease inhibitor cocktail (1×, Roche) in PBS on ice for 10 min. The lysates were scraped and transferred to corresponding Lo-Bind Eppendorfs. Each lysate was sonicated for 1 minute, and the samples centrifuges at 5,000 x g at 4 °C for 5 minutes to pellet insoluble cellular debris. The supernatant was collected, and protein concentration was determined using the DC Protein Assay (Bio-Rad) as per manufacturer’s instructions, and normalised to lowest concentrated sample (e.g. 1 mg/mL, using lysis buffer). The following “click mixture” was prepared separately, preparing 6 μL for every 100 μL of […]
Capture reagent (AzRB/AzT for ABP 2, YnT/YnB for ABP 4 10 mM in DMSO, 1 vol; final concentration […]
The lysate samples (10-20 μg) were mixed with 4× Laemmli sample loading buffer (250 mM Tris -HCl pH 6.8, 30% (v/v) glycerol, 10% (w/v) SDS, 0.05% (w/v) bromophenol blue) supplemented with 20% v/v β-mercaptoethanol (BME) and boiled for 10 min at 95 °C. […] Gel were imaged on a Typhoon imager (GE Healthcare; λEx 532 nm, λEm 575 nm for TAMRA. For protein loading quantification, gels were stained with Coomassie blue staining solution overnight, rinsed with water and imaged on an ImageQuant™ […]

[1] = HEK293T, 1 h probe treatment, CuAAC to AzTB

| Compound | lowest probe concentration showing major band at ca. 60 kDa (in-gel fluorescence) [1] [nM] | probe concentration above which additional bands are labelled (in-gel fluorescence) [1] | probe concentration for detection of USP30 activity in intact cells [nM] |
| --- | --- | --- | --- |
| C#Cc1cccc(-c2cc(NC(=O)CC3CCN(C#N)C3)on2)c1 (stereo not shown) [IMP-2587] | 3 | above 30 nM | 3 to 10 |
| N#CN1CC[C@@H](NC(=O)c2cc(-c3ccccc3Oc3ccc(N=[N+]=[N-])cc3)n[nH]2)C1 [IMP-2586] | – | – | 3 to 10 |

— PMC11078216, “Discovery of potent and selective activity-based probes (ABPs) for the deubiquitinating enzyme USP30” (RSC Chemical Biology, 2024)
